What was measured:
Type in all cases: in vivo, human
female IBS-C patients [1] = experiment: Side effects, female IBS-C patients (Example 2)
Procedure: (§1) The following study was performed to evaluate the effects of ileocolonic delivery of sodium chenodeoxycholate (CDC) on gastrointestinal (GI) and colonic transit and bowel function in constipation-predominant irritable bowel syndrome (IBS-C). A double-blind, placebo-controlled study evaluated effects of once-daily CDC for 4 days in 36 female IBS-C patients (mean age 41.80±1.62 y). Patients were randomized to oral placebo, 500 mg or 1000 mg CDC delivered to the ileocolonic region in pH-sensitive, methacrylate-coated capsules. Fasting serum 7α-hydroxy-4-cholesten-3-one (7αC4) was measured to assess for baseline abnormalities in bile acid synthesis. […] Treatment effects were compared by ANCOVA with BMI as a covariate, and each CDC dose against placebo by Dunnett's test.

healthy volunteers [2] = experiment: Adverse events, healthy volunteers (Example 1); settings: for Percent of participants dizzy, light-headed / Percent of participants with URI / Percent of participants with diarrhea / Percent of participants with gas / Percent of participants with headache / Percent of participants with loose stools / Percent of participants with lower abdo bloating / Percent of participants with lower abdo pain/cramps / Percent of participants with muscle aches / Percent of participants with nausea / Percent of participants with sensation of warmth / Percent of participants with sweating: n=20
Procedure: This was a double-blind, placebo-controlled, randomized study evaluating the effects of sodium chenodeoxycholate (CDC) or placebo orally administered once daily for four days in healthy volunteers. An independent statistician generated the randomization code. Clinical and laboratory study personnel were blinded throughout the study until data were locked and analyzed. Safety monitoring was conducted throughout the study. Three groups (n=20 each) were randomized to oral placebo, 500 mg or 1000 mg CDC daily (in pH-sensitive, methacrylate-coated capsules), each for a period of 4 days.

healthy volunteers [3] = experiment: Daily stool diaries (bowel function), healthy volunteers (Example 1); settings: for Ease of passage (scale 1-7) / Stool frequency per day / Stool consistency by Bristol Stool Form Scale: N = 20, mean ± SEM; for Stool frequency per day: overall p < 0.001; for Stool consistency by Bristol Stool Form Scale: scale 1 hard lumps to 7 watery
Procedure: This was a double-blind, placebo-controlled, randomized study evaluating the effects of sodium chenodeoxycholate (CDC) or placebo orally administered once daily for four days in healthy volunteers. Three groups (n=20 each) were randomized to oral placebo, 500 mg or 1000 mg CDC daily (in pH-sensitive, methacrylate-coated capsules), each for a period of 4 days. During at least 3 days of the baseline period and the 4 days of treatment period, each patient noted each bowel movement with the exact time and with the description of stool consistency according to the BSFS (ranging from 1=“hard lumps” to 7=“watery”), and the ease of passage (ranging from 1=“manual disimpaction” to 7=“incontinence”), and answered whether or not they felt they had completely emptied their bowels (1=“yes” and 0=“no”) (Bouras et al., Gastroenterology, 120:354-60 (2001)). The diaries contained values for stool consistency, stool frequency, ease of passage and sense of completely emptying their bowels.

healthy volunteers [4] = experiment: Scintigraphic gastrointestinal and colonic transit, healthy volunteers (Example 1); settings: for AC t1/2 (ascending colon emptying) / CF 6 (colonic filling at 6 hours) / GC 4 (colonic geometric center at 4 h) / GC 6 (colonic geometric center at 6 h) / GC 8 (colonic geometric center at 8 h) / GC 48 (colonic geometric center at 48 h) / GC 24 (colonic geometric center at 24 h) / GE t1/2 (gastric emptying): N = 20, mean ± SEM; for GC 48 (colonic geometric center at 48 h): overall p < 0.0001; for GC 24 (colonic geometric center at 24 h): overall p = 0.01; for GE t1/2 (gastric emptying): methacrylate-coated capsule
Procedure: This was a double-blind, placebo-controlled, randomized study evaluating the effects of sodium chenodeoxycholate (CDC) or placebo orally administered once daily for four days in healthy volunteers.
Randomization was 1:1:1 for placebo, chenodeoxycholate 500 mg, and chenodeoxycholate 1000 mg. Sodium chenodeoxycholate was purchased from Calbiochem, EMD Chemicals Inc., and Mayo pharmacy prepared identical placebo and chenodeoxycholate capsules, all of which were coated with the pH sensitive polymer, methacrylate. The latter dissolves at the neutral pH found in the distal ileum and was used to ensure ileocolonic delivery of the chenodeoxycholate.
Three groups (n=20 each) were randomized to oral placebo, 500 mg or 1000 mg CDC daily (in pH-sensitive, methacrylate-coated capsules), each for a period of 4 days.
Gastrointestinal (GI) and colonic transit was conducted by a scintigraphic method (Burton et al., J. Nucl. Med., 38:1807-10 (1997); Cremonini et al., Aliment Pharmacol. Ther., 16:1781-90 (2002); and Camilleri and Zinsmeister, Gastroenterology, 103:36-42 (1992)) during the last 48 hours of drug ingestion (FIG. 1).
An adaptation of an established scintigraphic method was used to measure GI and colonic transit (Burton et al., J. Nucl. Med., 38:1807-10 (1997); Cremonini et al., Aliment Pharmacol. Ther., 16:1781-90 (2002); and Camilleri and Zinsmeister, Gastroenterology, 103:36-42 (1992)). ^111In was adsorbed on to activated charcoal particles and delivered to the colon by means of a methacrylate-coated, delayed-release oral capsule. The capsule was ingested following an overnight fast. After the capsule emptied from the stomach, a ^99mTc-sulfur colloid radiolabeled meal was ingested. It consisted of two scrambled eggs, one slice of whole wheat bread, and one glass of whole milk. This meal facilitates measurement of gastric and small bowel transit. Subjects ingested standardized meals for lunch and dinner at 4 and 8 hours after the radiolabeled meal, respectively. Abdominal scans were obtained every hour for the first 6 hours (the first 4 hours for the assessment of gastric emptying) and at 8, 24, and 48 hours after ingestion of the ^111In capsule. The performance characteristics of this test are summarized elsewhere (Cremonini et al., Aliment Pharmacol. Ther., 16:1781-90 (2002)).
The counts in the stomach and each of four colonic regions: ascending, transverse, descending, and combined sigmoid and rectum were quantitated with a variable region of interest program. Counts were corrected for isotope decay, tissue attenuation, and downscatter of ^111In counts in the ^99mTc window (Burton et al., J. Nucl. Med., 38:1807-10 (1997) and Cremonini et al., Aliment Pharmacol. Ther., 16:1781-90 (2002)).
Gastric emptying t1/2 is a measure of the time for 50% of the radiolabeled meal (identifiable by radiolabeled tracer) to empty from the stomach. Colonic filling at 6 hours, or the proportion of the radiolabeled meal to have reached the colon at 6 hours is an indirect measurement of small bowel transit time. Overall colonic transit was summarized as the colonic geometric center (GC) at specified times. The GC is the weighted average of counts in the different colonic regions [ascending (AC), transverse (TC), descending (DC), rectosigmoid (RS)] and stool, respectively 1 to 5. Thus, at any time, the proportion of counts in each colonic region is multiplied by its weighting factor as follows:
(% AC×1+% TC×2+% DC×3+% RS×4+% stool×5)/100=GC
Thus, a higher GC reflects a faster colonic transit. Ascending colon emptying was summarized by the t1/2 calculated by linear interpolation of values on the AC emptying curve.
The primary endpoints were the colonic GC at 24 hours (GC 24) and AC emptying t1/2.

female IBS-C patients [5] = experiment: Bowel function by daily questionnaires, female IBS-C patients (Example 2)
Procedure: as §1

female IBS-C patients [6] = experiment: Scintigraphic gastrointestinal and colonic transit, female IBS-C patients (Example 2)
Procedure: as §1

[7] = 500 mg or 1000 mg once daily 4 days vs placebo, healthy volunteers
[8] = CDC 500 mg once daily 4 days, N = 11, mean ± SEM
[9] = CDC 1000 mg once daily 4 days, N = 12, mean ± SEM
[10] = 500 mg or 1000 mg once daily 4 days vs placebo

## C[C@H](CCC(=O)O)[C@H]1CC[C@H]2[C@@H]3[C@H](O)C[C@@H]4C[C@H](O)CC[C@]4(C)[C@H]3CC[C@]12C [CDC, sodium chenodeoxycholate]
Female IBS-C patients [1]; 500 mg or 1000 mg once daily 4 days
  Safety issues: No safety issues were identified
Female IBS-C patients [1]; CDC 500 mg once daily 4 days
  Patients with diarrhea: 18%
  Patients with lower abdominal cramps/pain: 45%
Female IBS-C patients [1]; CDC 1000 mg once daily 4 days
  Patients with diarrhea: 17%
  Patients with lower abdominal cramps/pain: 42%
Healthy volunteers [2]; 500 mg or 1000 mg once daily 4 days, healthy volunteers
  Serious adverse events: no serious adverse events
Healthy volunteers [2]; CDC 500 mg once daily 4 days
  Percent of participants dizzy, light-headed: 10%
  Percent of participants with URI: 0%
  Percent of participants with diarrhea: 40%
  Percent of participants with gas: 5%
  Percent of participants with headache: 25%
  Percent of participants with loose stools: 15%
  Percent of participants with lower abdo bloating: 5%
  Percent of participants with lower abdo pain/cramps: 15%
  Percent of participants with muscle aches: 5%
  Percent of participants with nausea: 5%
  Percent of participants with sensation of warmth: 5%
  Percent of participants with sweating: 5%
Healthy volunteers [2]; CDC 1000 mg once daily 4 days
  Percent of participants dizzy, light-headed: 5%
  Percent of participants with URI: 10%
  Percent of participants with diarrhea: 75%
  Percent of participants with gas: 5%
  Percent of participants with headache: 25%
  Percent of participants with loose stools: 20%
  Percent of participants with lower abdo bloating: 0%
  Percent of participants with lower abdo pain/cramps: 75%
  Percent of participants with muscle aches: 0%
  Percent of participants with nausea: 20%
  Percent of participants with sensation of warmth: 5%
  Percent of participants with sweating: 5%
Healthy volunteers [3]; 500 mg or 1000 mg once daily 4 days vs placebo, healthy volunteers, p=0.02
  Overall treatment effect on sense of incomplete evacuation: significant overall treatment effects
Healthy volunteers [3]; CDC 500 mg once daily 4 days
  Ease of passage (scale 1-7): 4.1 ± 0.06
  Stool frequency per day: 1.50 ± 0.18 per day
  Stool consistency by Bristol Stool Form Scale: 4.29 ± 0.19
Healthy volunteers [3]; CDC 1000 mg once daily 4 days
  Ease of passage (scale 1-7): 4.3 ± 0.06
  Stool frequency per day: 2.01 ± 0.15 per day
  Stool consistency by Bristol Stool Form Scale: 4.80 ± 0.15
Healthy volunteers [4]; [7]
  Treatment effect on colonic filling: not detected
  Treatment effect on gastric emptying: not detected
Healthy volunteers [4]; CDC 500 mg once daily 4 days
  AC t1/2 (ascending colon emptying): 12.1 ± 2.1 h
  CF 6 (colonic filling at 6 hours): 49.6 ± 7.0%
  GC 4 (colonic geometric center at 4 h): 0.87 ± 0.18
  GC 6 (colonic geometric center at 6 h): 1.53 ± 0.28
  GC 8 (colonic geometric center at 8 h): 1.83 ± 0.27
  GC 48 (colonic geometric center at 48 h): 4.10 ± 0.21
  GC 24 (colonic geometric center at 24 h): 2.80 ± 0.27
Healthy volunteers [4]; CDC 500 mg oral once daily 4 days
  GE t1/2 (gastric emptying): 2.115 ± 0.0883 h
Healthy volunteers [4]; CDC 1000 mg once daily 4 days
  AC t1/2 (ascending colon emptying): 10.7 ± 1.9 h
  CF 6 (colonic filling at 6 hours): 46.0 ± 7.1%
  GC 4 (colonic geometric center at 4 h): 1.27 ± 0.33
  GC 6 (colonic geometric center at 6 h): 2.20 ± 0.43
  GC 8 (colonic geometric center at 8 h): 2.52 ± 0.39
  GC 48 (colonic geometric center at 48 h): 4.92 ± 0.05
  GC 24 (colonic geometric center at 24 h): 3.76 ± 0.30
Healthy volunteers [4]; CDC 1000 mg oral once daily 4 days
  GE t1/2 (gastric emptying): 2.383 ± 0.235 h
Female IBS-C patients [5]; [8]
  Stool consistency (Bristol Scale): 3.58 ± 0.33
  Stool frequency per day: 1.22 ± 0.19 per day
Female IBS-C patients [5]; [9]
  Stool consistency (Bristol Scale): 3.47 ± 0.23
  Stool frequency per day: 1.27 ± 0.13 per day
Female IBS-C patients [6]; [10]
  Effect on colonic filling at 6 hours: not affected
  Effect on gastric emptying t1/2: not affected
Female IBS-C patients [6]; [8]
  AC t1/2 (ascending colon emptying): 9.55 ± 2.90 h
  CF 6 (colonic filling at 6 hours): 52.64 ± 6.67%
  GC 24 (colonic geometric center at 24 hours): 3.12 ± 0.43
Female IBS-C patients [6]; [9]
  AC t1/2 (ascending colon emptying): 8.19 ± 1.78 h
  CF 6 (colonic filling at 6 hours): 54.75 ± 7.05%
  GC 24 (colonic geometric center at 24 hours): 3.49 ± 0.36

Reference: patent US20110268794A1, “METHODS AND MATERIALS FOR DELIVERING BILE ACIDS” (priority 2009, published 2011)
